Data on two molecules can be found in article PMC7616463, “Peptidic boronic acid Plasmodium falciparum SUB1 inhibitors with improved selectivity over human proteasome” (Journal of medicinal chemistry, 2024).

The target of series [1] is T1, recombinant PfSUB1 (rPfSUB1) (Plasmodium falciparum, UniProt Q8I0V0).
T1 construct: made in house
The series can be described thus: PfSUB1 enzyme assay (recombinant PfSUB1, fluorogenic peptide substrate). The format is biochemical. The protocol:
The proteolytic activity of rPfSUB1 was monitored by the cleavage of the fluorogenic peptidic substrate SERA4st1F-6R12 (Ac-[…]-OH) and has been described previously.[28] Briefly, chymotrypsin treated rPfSUB1 (expressed and purified as described before […] was stored at −80 °C as a 228 U/mL stock in 20 mM Tris−HCl pH 8.2, 150 mM NaCl, 10% glycerol, and diluted for use (1:500) in reaction buffer (20 mM Tris−HCl pH 8.2, 150 mM NaCl, 12 mM CaCl2, 25 mM CHAPS). Peptidic boronic acid inhibitors were dissolved in 100% DMSO at 20 mM, then further diluted in DMSO to generate stock solutions ranging from 500 to 0.01 μM and then used diluted 1:100 in the enzyme reactions. All reactions were performed in wells of white 96-well microwell plates (Nunc); 50 μL diluted rPfSUB1 was preincubated for 5 min with 1 μL each of the serially diluted boronic acid inhibitors, followed by addition of 50 μL substrate solution (0.1 μM final). Subsequent fluorescence increase was continuously monitored using a SpectraMax M5e plate reader and SoftMax Pro-6.3 software, with readings taken every 3 min for 60 min using excitation and emission values of 552 and 580 nm, respectively. […] All experiments were performed in duplicate.

The next series has as its system P. falciparum line B11. The series can be described thus: Parasite growth assay, wild-type B11 line. In kind it is cell-based. The conditions noted are these: Plasmodium falciparum; 96 h, 2 erythrocytic cycles, SYBR green flow cytometry; triplicate; 95% confidence interval in parentheses; read-out: EC50 parasite growth, B11 line. From the text:
The DiCre-expressing P. falciparum line B11 (derived from a 3D7 background) has been described in full previously.[45] […] Briefly, the B11 line was first modified by the incorporation into the genomic Pfs47 locus of a cassette for constitutive expression of a TetR-DOZI fusion protein. The 3’ flanking region of the SUB1 gene was then modified by incorporation of 10 Tet repressor-binding aptamers, following by limiting dilution cloning to obtain a genetically homogenous line called 1AC5. […] Complete details of the characterization of this parasite line will be provided in a separate manuscript.
(§1) The effects of test compounds on in vitro growth of the B11 and 1AC5 P. falciparum lines was determined by flow cytometry as described previously.[48] Briefly, synchronous ring-stage parasites at 0.1% parasitaemia and 2% haematocrit were dispensed into flat-bottomed 96-well culture plates (200 ul per well) each containing 1 ul of appropriate serial dilutions of boronic acid or control antimalarial compounds in DMSO. Control wells contained DMSO only. Following incubation in sealed, humidified gassed chambers at 37°C for 96 h to allow the parasites to undergo two entire cycles of erythrocytic growth, cells were fixed, stained with SYBR green and analysed by flow cytometry on a BD FACSVerse™ using BD FACSuite™ software. Data were analysed using FlowJo software. EC50 values and statistical data were determined from dose-response curves generated using GraphPad Prism 10 (GraphPad Software).

For series [2], the system named is human 20S proteasome (H20S), chymotrypsin-like β5 activity. The series is described as follows: Human 20S proteasome kinetic assay (chymotrypsin-like β5 activity). In kind it is biochemical. The conditions noted are these: PfSUB1 vs H20S inhibition. How it is done: (§2) The fluorescent Proteasome substrate LLVY-R110 (ex: 490 nm, Em:525 nm) (#MAK172, Sigma-Aldrich) was used to measure the chymotrypsin-like activity (β5) of the human 20S proteasome and was prepared according to the activity assay kit instructions. Cleavage of this peptide generated intense green fluorescence due to the R110 group and was monitored at 520-530 nm with excitation at 480-500 nm. The purified human 20S proteasome (BML-PW8720-0050, EnzoSciences), stored at 1mg/ml in 20 mM Tris-HCl pH 7.2, 1mM EDTA, 1mM DTT 1mM NaN3, 50% glycerol was diluted in TRIS-buffered saline (TBS, pH 7.4) to an intermediate concentration of 0.44 μM. […] The reactions were performed in white 96-well fluorescent microtiter-plate format (Nunc). The Substrate solution was added first (100 μl), followed by 1 μl of the inhibitor (50 μM intermediate stock) and 1 μl of the H20S proteasome at 0.44 μM. The IC50s were determined for a selection of potent PfSUB1 inhibitors. After sequential dilution of the inhibitors in 100% DMSO, 1 μl of each dilution was used in a 100 μl reaction containing the fluorescent substrate. The reaction was initiated by the addition of 1 μl of the 20S proteasome intermediate stock solution. The fluorescence increase was monitored using a SpectraMax M5e plate reader and SoftMax Pro-6.3 software Measure activity on a plate reader (ex: 490 nm, Em: 525 nm) with the photomultiplier tube (PMT) set to medium with readings every 3 min for one hour. All measurements were done in duplicate. The progress curves were plotted within GraphPad Prism 9.5.0.

A further series relates to HepG2 cells. The series is described as follows: Mammalian cell cytotoxicity assay (resazurin). The format is cell-based. The conditions noted are these: for CC50 (concentration that reduced cell viability by 50%): HepG2, 48 h treatment, resazurin, triplicate, tested up to 30 μM (1a), 200 μM (4c), 150 μM (tipifarnib). The protocol:
HepG2 cells were cultured in Dulbecco’s Modified Eagle Medium with F12 GlutaMAX (DMEM/F12 GlutaMAX) (Gibco) supplemented with 10% (v/v) heat-inactivated foetal calf serum (FCS), 1% L-glutamine and 1% penicillin-streptomycin (10,000 U/ml), and maintained in a humidified 5% CO2 incubator at 37°C. The culture medium was changed every 2-3 days and cells were passaged when a confluency of 75-80% was reached. At passage 2 or above, HepG2 cells were harvested using 0.25% trypsin-0.53 mM EDTA (Gibco). Cell counts and cell viability were determined by an automated cell counting machine (vi-CELL, Beckman) and seeded at a density of 1x10^4-5x10^5 cells per well in a transparent flat-bottom 96-well plate (Corning), and maintained in a humidified 5% CO2 incubator at 37°C. […] As a vehicle control, 1% DMSO was used. After 48 hs, media was removed and replaced with 100 μl media containing 10% resazurin solution (Invitrogen) and incubated for 4 h at 37°C in 5% CO2. After 4 h, the solution was transferred to an opaque 96-well plate (Corning) to measure reduction of resazurin to resorufin using a SpectraMax M5 microplate reader (Molecular Devices LLC) (ex. 560 nm, em. 590 nm). Cells without treatment compounds were used to determine 100% viability. Cell viability was determined by measuring fluorescence as a % of solvent control. Concentration viability response curves, CC50 values, mean CC50 value and standard error were generated using GraphPad Prism 10 (GraphPad Software).
In general terms: The colour change of resazurin is a common sign of viable cells or microbes.

Series [3] has as its system P. falciparum line 1AC5 (8-10-fold reduced PfSUB1). The series can be described thus: Parasite growth assay, PfSUB1 knock-down 1AC5 line. The format is cell-based, Plasmodium falciparum. The settings on record: for EC50: Plasmodium falciparum, 96 h, read-out: EC50 parasite growth, 1AC5 line.
From the text: The DiCre-expressing P. falciparum line B11 (derived from a 3D7 background) has been described in full previously.[45] To generate a mutant line selectively expressing reduced levels of PfSUB1, we exploited the anhydrotetracycline (aTc)-inducible TetR aptamer system described by Niles and colleagues[46] and subsequently adapted by Rajaram et al.[47] Briefly, the B11 line was first modified by the incorporation into the genomic Pfs47 locus of a cassette for constitutive expression of a TetR-DOZI fusion protein. The 3’ flanking region of the SUB1 gene was then modified by incorporation of 10 Tet repressor-binding aptamers, following by limiting dilution cloning to obtain a genetically homogenous line called 1AC5. […] Complete details of the characterization of this parasite line will be provided in a separate manuscript.
as §1

Series [4] addresses T2, human 20S proteasome (H20S), chymotrypsin-like β5 activity (Homo sapiens, UniProt P20618+P28074).
T2 construct: variant as stated: H20S
The series is described as follows: Human 20S proteasome kinetic assay (chymotrypsin-like β5 activity). In kind it is biochemical. The conditions noted are these: purified human 20S proteasome, β5 activity, substrate LLVY-R110, fluorescence; duplicate; read-out: IC50, nM H20S inhibition. How it is done:
as §2

“And” between values parts separate entries of the source, which are not always exact repeats. Equal values may be shown once.

T1 sequence (Q8I0V0 218-688): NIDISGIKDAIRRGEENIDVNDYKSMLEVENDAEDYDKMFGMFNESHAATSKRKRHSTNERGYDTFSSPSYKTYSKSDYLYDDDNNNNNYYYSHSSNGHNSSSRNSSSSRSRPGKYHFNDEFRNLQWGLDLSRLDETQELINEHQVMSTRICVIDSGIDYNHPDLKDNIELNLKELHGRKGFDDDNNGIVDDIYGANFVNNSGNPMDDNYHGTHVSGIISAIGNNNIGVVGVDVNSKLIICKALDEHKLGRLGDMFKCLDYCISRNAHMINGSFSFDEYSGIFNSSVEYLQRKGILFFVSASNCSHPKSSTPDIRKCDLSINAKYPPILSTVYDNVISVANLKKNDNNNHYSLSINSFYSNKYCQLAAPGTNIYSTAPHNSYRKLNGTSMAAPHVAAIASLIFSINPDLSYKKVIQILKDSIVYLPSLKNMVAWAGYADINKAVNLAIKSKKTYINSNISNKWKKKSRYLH

As a reminder, the IC50 is the concentration at which inhibition is half-maximal. The EC50 is the concentration needed to bring the measured effect to its halfway point. In the case of `CC[C@H](C)[C@H](NC(=O)[C@@H](NC(=O)c1cc(C)cc(C)c1)C1CCCC1)C(=O)NCC(=O)N[C@H]1CCC(=O)OB1O` [4c, N-((S)-1-cyclopentyl-2-(((2S,3S)-1-((2-(((R)-2-hydroxy-6-oxo-1,2-oxaborinan-3-yl)amino)-2-oxoethyl)amino)-3-methyl-1-oxopentan-2-yl)amino)-2-oxoethyl)-3,5-dimethylbenzamide], the IC50 in series [1] came out at 15.3 ± 0.1 nM. In addition, the EC50 with P. falciparum line B11 turned out to be 2260 nM; in series [3] it was 160 nM. In addition, the “selectivity versus H20S” value in series [2] is greater than 60 fold. In addition, the “CC50 (concentration that reduced cell viability by 50%)” value with HepG2 cells is 296000 nM. In addition, the “factor by which less toxic to HepG2 than 1a” value with HepG2 cells (HepG2 CC50 of 4c vs 1a) is recorded as 27 fold. Further, the “fold higher sensitivity of 1AC5 line than of B11 line” value in series [3] (growth inhibition, 1AC5 vs wild-type B11) was 13 fold and ~ 13 fold.
As to `CC(=O)N[C@H](C(=O)N[C@H](C(=O)NCC(=O)N[C@@H](C)B(O)O)C(C)C)C1CCCC1` [1a], the figures for the EC50 (in the series on P. falciparum line B11; in series [3]) were 150 nM and 130 nM, respectively. The IC50 in series [4] turned out to be 32.8 ± 1.7 nM. For the same molecule, the “CC50 (concentration that reduced cell viability by 50%)” value in the series with HepG2 cells stood at 11000 nM.
